The values that follow come from publication PMC9917099, “The Mycotoxin Patulin Inhibits the Mitochondrial Carnitine/Acylcarnitine Carrier (SLC25A20) by Interaction with Cys136 Implications for Human Health” (International Journal of Molecular Sciences, 2023).

Series [1] deals with cell viability. Set-up: method as in PMID 25098256. To be noted: 60 µM; cited from earlier work.
For series [2], the target named is T1, recombinant human WT CAC (Homo sapiens, UniProt O43772).
T1 construct: made in house; host or cells: E. coli C0214 (pMW7, inclusion bodies)
T1 sequence (O43772 1-301): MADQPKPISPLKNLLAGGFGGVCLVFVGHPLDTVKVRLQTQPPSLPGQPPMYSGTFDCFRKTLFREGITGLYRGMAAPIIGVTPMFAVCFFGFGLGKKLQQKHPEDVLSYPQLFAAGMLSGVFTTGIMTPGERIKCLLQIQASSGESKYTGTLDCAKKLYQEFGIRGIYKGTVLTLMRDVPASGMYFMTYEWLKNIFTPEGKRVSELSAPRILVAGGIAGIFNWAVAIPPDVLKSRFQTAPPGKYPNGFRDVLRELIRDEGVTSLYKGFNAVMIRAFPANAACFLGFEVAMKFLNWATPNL
In words: [3H]-carnitine/carnitine antiport in proteoliposomes with recombinant human WT CAC. In kind it is biochemical. The conditions noted are these: PAT 30 min, read-out: IC50 of CAC WT inhibition. On the procedure: To shed light on the interaction between PAT and CAC and verify if specific Cys residues were involved, transport experiments on the recombinant rat and human WT CAC and CAC’s rat Cys mutants were performed. As in the case of the native protein, transport activities were measured as [^3H]-carnitine/carnitine antiport in proteoliposomes. […] The PAT inhibition of the WT recombinant protein was only slightly greater compared to the native protein, although compounds and other molecular systems that affect the mycotoxin binding to the native CAC were absent (see above). For identifying the residues involved in the PAT interaction, site-directed Cys mutants were tested for inhibition (Figure 2). […]
Figure 2 Dose-response analysis of the PAT inhibition of the CAC recombinant proteins. […] The data are expressed as a percentage of the controls (no PAT addition) and are means ± SD of three independent experiments. […]
(§1) For the transport assay, 550 μL of proteoliposomes were passed through a Sephadex G-75 column in order to remove the external substrate. […] After finishing the transport reaction, the external radiolabel substrate was removed by gel filtration chromatography (Sephadex G-75), and the intraliposomal radioactivity was measured by liquid scintillation. Transport was measured at 25 °C. […] Transport rates were measured in 10 min, i.e., within the initial linear range of the time course.

Series [3] deals with T2, native mitochondrial carnitine/acylcarnitine carrier (CAC, SLC25A20) (Rattus norvegicus, UniProt P97521).
T2 construct: the native protein extracted from rat liver mitochondria; from tissue; host or cells: rat liver mitochondria (Triton X-100 extract)
T2 sequence (P97521 1-301): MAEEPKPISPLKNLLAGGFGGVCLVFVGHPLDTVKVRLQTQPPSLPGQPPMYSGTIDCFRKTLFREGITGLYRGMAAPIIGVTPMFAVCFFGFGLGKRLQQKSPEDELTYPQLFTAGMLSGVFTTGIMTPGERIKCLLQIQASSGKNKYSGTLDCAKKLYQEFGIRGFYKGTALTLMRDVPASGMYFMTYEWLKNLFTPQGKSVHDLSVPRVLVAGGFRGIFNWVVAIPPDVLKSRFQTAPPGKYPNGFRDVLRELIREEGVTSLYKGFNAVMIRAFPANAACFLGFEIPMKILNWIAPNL
In words: [3H]-carnitine/carnitine antiport in proteoliposomes reconstituted with native CAC extracted from rat liver mitochondria. In kind it is biochemical. To be noted: PAT incubated 30 min, 0.1 mM [3H]carnitine 10 min, read-out: IC50 of CAC inhibition. The protocol:
For studying the effect of PAT on the native mitochondrial CAC, a dose–response analysis on the rat liver-extracted mitochondria was performed. Aliquots of the mitochondrial extract (0.3 mg of total proteins) were reconstituted in liposomes and incubated for 30 min with several concentrations of PAT before starting the transport assay as [^3H]-carnitine/carnitine antiport (see Materials and Methods).
Figure 1 Effect of Patulin on the native carnitine/acylcarnitine carrier (CAC). (A) Dose-response analysis of proteoliposomes reconstituted with the CAC extracted from rat liver mitochondria (0.3 mg of total proteins) and incubated with PAT at the indicated concentrations for 30 min, before measuring the transport activity by adding 0.1 mM [^3H] carnitine for 10 min as described in Materials and Methods. The percentage of residual activity compared to control, without PAT treatment, is reported. […]
as §1

The structures appear in SMILES notation. Values joined by “and” are separate entries in the source; they are usually repeats but may differ in a detail not shown here. Equal entries are not always repeated.

The IC50 is the point on the concentration scale where inhibition reaches its midpoint. Take `O=C1C=C2C(=CCOC2O)O1` (stereo not drawn) [PAT, 4-hydroxy-4H-furo [3,2c] pyran-2 [6H] -one]: in series [1], the “toxicity for cell viability” value is “nontoxic range”. For the same compound, the IC50 in series [2] was 50 µM and ~50 µM; in series [3], 55 µM and ~50 µM.
